Test results published in US8642094B2, “Synergistic pharmaceutical composition, method of making same and use of same” (Afexa Life Sciences Inc., priority 2008, dated 2014).

How the values were obtained:
[1] = molecular target: T1, squalene synthase (Homo sapiens, UniProt P37268); conditions: cited from earlier work
T1 sequence (P37268 1-417): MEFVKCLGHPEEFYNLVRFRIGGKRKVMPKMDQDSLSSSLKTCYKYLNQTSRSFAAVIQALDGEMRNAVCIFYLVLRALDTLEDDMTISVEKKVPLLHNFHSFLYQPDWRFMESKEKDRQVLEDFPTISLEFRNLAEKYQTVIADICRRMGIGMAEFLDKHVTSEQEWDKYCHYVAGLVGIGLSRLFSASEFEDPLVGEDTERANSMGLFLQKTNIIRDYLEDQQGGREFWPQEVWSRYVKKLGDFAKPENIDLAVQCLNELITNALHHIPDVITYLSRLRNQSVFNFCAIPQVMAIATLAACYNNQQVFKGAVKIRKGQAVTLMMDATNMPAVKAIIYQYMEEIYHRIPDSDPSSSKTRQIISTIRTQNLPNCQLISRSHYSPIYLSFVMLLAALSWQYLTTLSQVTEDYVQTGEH

[2] = tested on: secretion of apo-B from HepG2 cells; experiment: Apo-B secretion from HepG2 cells; format: cell-based, human; conditions: for nature of interaction with ethanol extract of HL: non-linear blending curves, combined total doses 30-250 ug/ml, FIGS. 9-11, 14-35; for nature of interaction with berberine (BBR): non-linear blending, combined total dose 50 ug/ml, FIGS. 36-40
Procedure: In the Examples to follow, Apo-B secretion experiments were carried out on HepG2 cells. These cells were obtained from the American Type Culture Collection (cat #: ATCC HB-8065). HepG2, a human hepatoblastoma-derived cell line, is one of the most commonly used models to study lipoprotein uptake and metabolism in intact human liver. These cells secrete most of the plasma proteins secreted from human liver cells including apolipoprotein-B [38]. In addition, most of the enzymes involved in intra- and extracellular cholesterol metabolism including LCAT, ACAT, HMG-CoA reductase and Cholesterol 7-α-hydroxylase are expressed in these cells.
The effects of HL, KDC and hawthorn extracts, when used in isolation as well as in combination, on the secretion of apo-B from human hepatoma cells, Hep-G2 was determined. Water extracts of Coptis chinesis (Huanglian) and Ku Ding Cha (Ilex kudingcha) were developed and tested; results are indicated in FIGS. 1 and 2, respectively. Ethanolic extracts of Coptis chinesis (Huanglian) and ethyl acetate extracts of Ku Ding Cha (Ilex kudingcha) were also developed and hawthorn extract was used for these experiments shown in FIGS. 3-12.
Additional experiments were subsequently carried out to confirm the synergism between the HL and KDC extracts. Three commonly used approaches including non-linear blending, isobologram and combination index were utilized to determine this interaction.
Determination of a drugs combination index (CI) provides quantitative information of the nature of drug interaction. It is calculated through the following equation: CI=(CA,X/ICX,A)+(CB,X/ICX,B) CA,X and CB,X, are the concentrations of drug A and drug B used in the combination to achieve x % drug effect. ICX,A and ICX,B are the concentrations for single agents to achieve the same effect. A CI of less than, equal to, and more than 1 indicates synergy, additivity, and antagonism, respectively.

[3] = molecular target: acyl-CoA: cholesterol acyltransferase (ACAT); conditions: cited from earlier work
[4] = tested on: L929 cells; conditions: cited from earlier work
[5] = tested on: Hep G2 cells; conditions: cited from earlier work
[6] = oral, 100 mg/day for 2 weeks; cited from earlier work
[7] = tested on: 3T3-L1 adipocytes; conditions: cited from earlier work
[8] = molecular target: T2, CYP2E1 (Homo sapiens, UniProt P05181); conditions: human liver microsomes, 20 μM; cited from earlier work
T2 construct: incubation of human liver microsomes with BBR; from tissue; host or cells: human liver microsomes
T2 sequence (P05181 whole entry): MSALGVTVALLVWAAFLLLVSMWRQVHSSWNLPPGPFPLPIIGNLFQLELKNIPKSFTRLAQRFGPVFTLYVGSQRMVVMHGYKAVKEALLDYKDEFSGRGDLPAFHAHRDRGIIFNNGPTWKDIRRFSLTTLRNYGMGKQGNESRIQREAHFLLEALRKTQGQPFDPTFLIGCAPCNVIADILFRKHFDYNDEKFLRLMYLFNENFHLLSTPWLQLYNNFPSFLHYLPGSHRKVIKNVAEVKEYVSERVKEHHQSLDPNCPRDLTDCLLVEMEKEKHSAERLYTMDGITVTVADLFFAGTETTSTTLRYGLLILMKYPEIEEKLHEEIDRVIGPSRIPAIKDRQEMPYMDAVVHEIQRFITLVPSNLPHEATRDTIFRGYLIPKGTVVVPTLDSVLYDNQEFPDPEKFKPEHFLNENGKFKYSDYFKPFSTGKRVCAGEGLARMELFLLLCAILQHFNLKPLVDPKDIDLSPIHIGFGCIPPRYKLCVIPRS

[9] = tested on: LDL receptors; conditions: Hep G2 cells; cited from earlier work
[10] = molecular target: T3, CYP2D6 (Homo sapiens, UniProt P10635); conditions: human liver microsomes, 20 μM; cited from earlier work
T3 construct: incubation of human liver microsomes with BBR; from tissue; host or cells: human liver microsomes
T3 sequence (P10635 whole entry): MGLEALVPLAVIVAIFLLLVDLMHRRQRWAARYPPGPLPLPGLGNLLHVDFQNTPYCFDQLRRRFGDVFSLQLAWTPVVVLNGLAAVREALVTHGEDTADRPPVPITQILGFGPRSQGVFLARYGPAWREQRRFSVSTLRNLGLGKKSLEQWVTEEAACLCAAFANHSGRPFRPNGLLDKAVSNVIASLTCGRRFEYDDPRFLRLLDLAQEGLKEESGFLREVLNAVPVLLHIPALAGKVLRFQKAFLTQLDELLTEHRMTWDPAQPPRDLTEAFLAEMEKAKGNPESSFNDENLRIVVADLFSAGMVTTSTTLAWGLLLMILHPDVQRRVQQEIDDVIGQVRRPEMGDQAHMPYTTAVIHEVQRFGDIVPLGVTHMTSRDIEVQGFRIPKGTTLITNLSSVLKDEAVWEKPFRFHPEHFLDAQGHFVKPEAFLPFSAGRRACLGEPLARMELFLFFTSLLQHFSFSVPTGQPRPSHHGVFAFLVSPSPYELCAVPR

[11] = 1 g/day for 3 months; cited from earlier work
[12] = tested on: mice; conditions: mouse, in vivo; cited from earlier work
[13] = molecular target: T4, CYP3A4 (Homo sapiens, UniProt P08684); conditions: human liver microsomes, 20 μM; cited from earlier work
T4 construct: incubation of human liver microsomes with BBR; from tissue; host or cells: human liver microsomes
T4 sequence (P08684 whole entry): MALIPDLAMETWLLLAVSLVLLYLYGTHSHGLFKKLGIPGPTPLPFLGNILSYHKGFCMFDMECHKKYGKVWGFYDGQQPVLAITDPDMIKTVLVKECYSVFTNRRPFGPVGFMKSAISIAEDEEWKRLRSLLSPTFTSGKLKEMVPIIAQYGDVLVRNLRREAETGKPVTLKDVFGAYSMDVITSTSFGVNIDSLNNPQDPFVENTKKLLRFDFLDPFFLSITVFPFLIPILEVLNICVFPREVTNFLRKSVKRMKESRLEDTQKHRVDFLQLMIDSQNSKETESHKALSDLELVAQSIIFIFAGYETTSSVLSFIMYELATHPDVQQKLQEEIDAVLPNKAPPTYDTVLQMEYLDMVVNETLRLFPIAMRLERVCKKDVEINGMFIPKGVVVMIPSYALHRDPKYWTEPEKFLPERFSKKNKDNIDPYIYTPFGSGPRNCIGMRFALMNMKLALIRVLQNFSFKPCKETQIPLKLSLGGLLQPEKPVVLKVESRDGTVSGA

[14] = molecular target: nucleoside triphosphate hydrolase (NTPase); conditions: cited from earlier work

Q: What does the source list for O=C(/C=C/c1ccc(O)c(O)c1)O[C@@H]1C[C@](O)(C(=O)O)C[C@@H](O)[C@H]1O [Chlorogenic acid]?
A: IC50 [1]: 0.1 µM; nature of interaction with ethanol extract of HL [2]: synergism; nature of interaction with berberine (BBR) [2]: synergism

Q: With C=C(C)[C@@H]1CC[C@]2(C)CC[C@]3(C)[C@H](CC[C@@H]4[C@@]5(C)CC[C@H](O)C(C)(C)[C@@H]5CC[C@]43C)[C@@H]12 [Lupeol, 3β-Hydroxy-20(29)-lupene] as the compound, how does the IC50 [3] read?
A: 48 µM

Q: And the “nature of interaction with ethanol extract of HL” value (“nature of interaction … of HL” for short) [2]?
A: interacting with HL

Q: What about the “nature of interaction with berberine (BBR)” value (“nature of interaction … (BBR)” below) [2] of the same compound?
A: synergism

Q: With COc1cc2c(cc1OC)-c1cc3ccc(OC)c(OC)c3c[n+]1CC2 [Palmitine chloride, palmitine chloride] as the compound, how does the “nature of interaction … (BBR)” value [2] read?
A: interact synergistically

Q: With COc1ccc2cc3[n+](cc2c1OC)CCc1cc2c(cc1-3)OCO2 [berberine] as the compound, how does the dose inducing cytotoxicity [4] read?
A: greater than 40 μg/ml

Q: And the “synthesis of cholesterol and triglyceride in the cells” value [5]?
A: inhibit the synthesis of cholesterol and triglyceride

Q: What about the “reduction of serum LDL-cholesterol levels” value [6] of the same compound?
A: up to 30%

Q: What about the “reduction of serum total cholesterol levels” value [6] of the same compound?
A: up to 30%

Q: What about the “differentiation of 3T3-L1 adipocytes” value [7] of the same compound?
A: inhibit differentiation

Q: What about the CYP2E1 activity [8] of the same compound?
A: decrease the activities

Q: What about the “expression of LDL receptors” value [9] of the same compound?
A: increases the expression of LDL receptors

Q: And the CYP2D6 activity [10]?
A: decrease the activities

Q: What about the “reduction of LDL-cholesterol” value [11] of the same compound?
A: 25%

Q: And the “reduction of serum cholesterol concentrations” value [11]?
A: 29%

Q: And the reduction of triglycerides [11]?
A: 35%

Q: What about the lethal dose [12] of the same compound?
A: exceeding 15 mg/Kg

Q: What about the CYP3A4 activity [13] of the same compound?
A: decrease the activities

Q: For C=C(C)[C@@H]1CC[C@]2(CO)CC[C@]3(C)[C@H](CC[C@@H]4[C@@]5(C)CC[C@H](O)C(C)(C)[C@@H]5CC[C@]43C)[C@@H]12 [betulin, lup-20[29]-ene-3β,28-diol], which IC50 [3] is on record?
A: 83 µM

Q: And the “nature of interaction … of HL” value [2]?
A: interacting with HL

Q: What about the “nature of interaction … (BBR)” value [2] of the same compound?
A: synergism

Q: Which IC50 [14] does the source give for C[C@H]1[C@H](C)CC[C@]2(C(=O)O)CC[C@]3(C)C(=CC[C@@H]4[C@@]5(C)CC[C@H](O)C(C)(C)[C@@H]5CC[C@]43C)[C@H]12 [ursolic acid, 3β-Hydroxy-12-ursen-28-ic acid] here?
A: 0.6 µM

Q: And the IC50 [3]?
A: 58.8 µM

Q: What about the “nature of interaction … of HL” value [2] of the same compound?
A: interacting with HL

Q: What about the “nature of interaction … (BBR)” value [2] of the same compound?
A: synergism

Q: Which IC50 [3] does the source give for Lipedoside B-III here?
A: 269 µM
